The structures appear in SMILES notation.

Holding throughout (type): functional, cell-based
Conditions in all cases: oocyte

The target in data set [1] is T1, Solute carrier family 22 member 7 (Homo sapiens, UniProt Q9Y694).
T1 sequence (Q9Y694 whole entry): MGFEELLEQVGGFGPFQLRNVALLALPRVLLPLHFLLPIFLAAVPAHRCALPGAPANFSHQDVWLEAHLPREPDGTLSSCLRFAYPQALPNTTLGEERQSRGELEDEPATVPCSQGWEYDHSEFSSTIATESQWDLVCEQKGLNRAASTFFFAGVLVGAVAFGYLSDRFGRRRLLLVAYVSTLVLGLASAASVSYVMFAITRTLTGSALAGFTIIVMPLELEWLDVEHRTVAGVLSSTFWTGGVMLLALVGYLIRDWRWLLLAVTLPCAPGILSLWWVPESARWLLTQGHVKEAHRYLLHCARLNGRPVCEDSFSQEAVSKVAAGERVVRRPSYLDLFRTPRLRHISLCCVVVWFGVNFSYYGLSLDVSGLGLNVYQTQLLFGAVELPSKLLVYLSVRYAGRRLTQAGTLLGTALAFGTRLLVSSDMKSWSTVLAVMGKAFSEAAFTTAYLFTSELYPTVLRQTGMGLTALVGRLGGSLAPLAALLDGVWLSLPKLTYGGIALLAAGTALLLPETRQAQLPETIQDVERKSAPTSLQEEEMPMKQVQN
As to the kind of experiment: TP_TRANSPORTER: uptake in OAT2-expressing oocytes.

Data set [2] deals with T1, Solute carrier family 22 member 7. As to the kind of experiment: TP_TRANSPORTER: inhibition of theophylline uptake in OAT2-expressing oocytes.
Data set [3] has the same target. As to the kind of experiment: TP_TRANSPORTER: inhibition of erythromycin uptake in OAT2-expressing oocytes.

For the compound `CC[C@H]1OC(=O)[C@H](C)[C@@H](O[C@H]2C[C@@](C)(OC)[C@@H](O)[C@H](C)O2)[C@H](C)[C@@H](O[C@@H]2O[C@H](C)C[C@H](N(C)C)[C@H]2O)[C@](C)(O)C[C@@H](C)C(=O)[C@H](C)[C@@H](O)[C@]1(C)O` [ERYTHROMYCIN], the results for the Activity entry in data set [1] and in data set [2] were “substrate []” and “inhibitor []”, respectively.

As for `Cn1c(=O)c2[nH]cnc2n(C)c1=O.O` [THEOPHYLLINE], the Activity entry in data set [1] was “substrate []”; in data set [3] it was “inhibitor []”.

For `CC[C@H]1OC(=O)[C@H](C)[C@@H](O[C@H]2C[C@@](C)(OC)[C@@H](O)[C@H](C)O2)[C@H](C)[C@@H](O[C@@H]2O[C@H](C)C[C@H](N(C)C)[C@H]2O)[C@](C)(OC)C[C@@H](C)C(=O)[C@H](C)[C@@H](O)[C@]1(C)O` [CLARITHROMYCIN], in data set [2], the Activity entry was “inhibitor []”.

Values taken from ChEMBL document CHEMBL2074379, “Possible involvement of organic anion transporter 2 on the interaction of theophylline with erythromycin in the human liver” (Drug Metab Dispos, 2005).
